Source: PubChem BioAssay (NCI)
Where “and” joins values, the source holds several entries; their conditions need not be identical. Identical values can stand only once.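 Interpolation was linear, between the two tested concentrations surrounding the appropriate level; five concentrations were tested over 48 hours in 96-well plates. GI50 marks 50% less growth. TGI: total growth inhibition.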

What was measured:
Experiment in all cases: NCI tumour cell line growth inhibition, 48 h
CAKI-1 renal = tested on: CAKI-1 renal
COLO 205 colon = tested on: COLO 205 colon
HCC-2998 colon = tested on: HCC-2998 colon
HL-60(TB) leukemia = tested on: HL-60(TB) leukemia
HOP-62 NSCLC = tested on: HOP-62 NSCLC
IGROV1 ovarian = tested on: IGROV1 ovarian
MALME-3M melanoma = tested on: MALME-3M melanoma
MDA-MB-231 breast = tested on: MDA-MB-231 breast
MDA-MB-435 = tested on: MDA-MB-435
NCI-H23 lung = tested on: NCI-H23 lung
OVCAR-5 ovarian = tested on: OVCAR-5 ovarian
RXF 393 renal = tested on: RXF 393 renal
SF-268 CNS = tested on: SF-268 CNS
SF-295 CNS = tested on: SF-295 CNS
SK-MEL-2 melanoma = tested on: SK-MEL-2 melanoma
SK-MEL-5 melanoma = tested on: SK-MEL-5 melanoma
SN12C renal = tested on: SN12C renal
TK-10 renal = tested on: TK-10 renal

| Structure (SMILES) | TGI (CAKI-1 renal) | TGI (COLO 205 colon) | TGI (HCC-2998 colon) | TGI (HL-60(TB) leukemia) | TGI (HOP-62 NSCLC) | TGI (IGROV1 ovarian) | TGI (MALME-3M melanoma) | TGI (MDA-MB-231 breast) | TGI (MDA-MB-435) | TGI (NCI-H23 lung) | TGI (OVCAR-5 ovarian) | TGI (RXF 393 renal) | TGI (SF-268 CNS) | TGI (SF-295 CNS) | TGI (SK-MEL-2 melanoma) | TGI (SK-MEL-5 melanoma) | TGI (SN12C renal) | TGI (TK-10 renal) | GI50 (TK-10 renal) |
| --- | --- | --- | --- | --- | --- | --- | --- | --- | --- | --- | --- | --- | --- | --- | --- | --- | --- | --- | --- |
| CC[C@H](O)[C@H](C)C=C1SCCCS1 | > 100 µM | > 100 µM | > 100 µM | 89.7 µM | > 100 µM | > 100 µM | > 100 µM | > 100 µM | > 100 µM | > 100 µM | > 100 µM | > 100 µM | > 100 µM | > 100 µM | > 100 µM | > 100 µM | > 100 µM | > 100 µM | – |
| Nn1c(COc2cccc(OCc3n[nH]c(=S)n3N)c2)n[nH]c1=S | > 100 µM | > 100 µM | > 100 µM | > 100 µM | > 100 µM | > 100 µM | > 100 µM | > 100 µM | > 100 µM | > 100 µM | > 100 µM | > 100 µM | > 100 µM | > 100 µM | > 100 µM | – | > 100 µM | > 100 µM | – |
| [N-]=[N+]=C1N=CN=C1c1ncn[nH]1 | 37.5 µM | > 100 µM | > 100 µM | 40.5 µM | > 100 µM | > 100 µM | > 100 µM | > 100 µM | > 100 µM | > 100 µM | – | > 100 µM | – | > 100 µM | > 100 µM | > 100 µM | 93.9 µM | > 100 µM | – |
| COC(=O)NCCc1[nH]nc2c1C(=O)C=C(N1CCOCC1)C2=O | > 100 µM | > 100 µM | > 100 µM | > 100 µM | > 100 µM | > 100 µM | > 100 µM | > 100 µM | > 100 µM | > 100 µM | > 100 µM | > 100 µM | > 100 µM | > 100 µM | > 100 µM | > 100 µM | > 100 µM | > 100 µM | – |
| O=S(=O)(O)c1cc(O)c2c(N=Cc3ccccc3O)cc(S(=O)(=O)O)cc2c1 | > 100 µM | > 100 µM | > 100 µM | > 100 µM | > 100 µM | > 100 µM | > 100 µM | > 100 µM | > 100 µM | > 100 µM | > 100 µM | > 100 µM | > 100 µM | > 100 µM | > 100 µM | > 100 µM | > 100 µM | > 100 µM | – |
| Nc1nc(Cl)c(N)c(NCC2(CO)CC(OCc3ccccc3)C2)n1 (stereo unspecified) | > 100 µM | > 100 µM | > 100 µM | > 100 µM | > 100 µM | > 100 µM | > 100 µM | > 100 µM | > 100 µM | > 100 µM | > 100 µM | > 100 µM | > 100 µM | > 100 µM | > 100 µM | > 100 µM | > 100 µM | > 100 µM | – |
| O=CN1CCN(C(=O)c2ccc(Cl)cc2Cl)C1=S | > 100 µM | > 100 µM | > 100 µM | 69.2 µM | > 100 µM | > 100 µM | > 100 µM | > 100 µM | > 100 µM | > 100 µM | > 100 µM | > 100 µM | > 100 µM | > 100 µM | > 100 µM | – | > 100 µM | > 100 µM | – |
| COC(=O)CCC(=O)NC1=C(Nc2ccc(OC)cc2)C(=O)c2ccccc2C1=O | 40.2 µM | 28 µM | 35.7 µM | > 68 µM | 33.2 µM | 26 µM | 4.69 µM | 27.3 µM | 3.53 µM | 22.7 µM | 31 µM | 67 µM | 98.2 µM | 25.8 µM | 20.1 µM | 3.57 µM | 27.3 µM | 85.3 µM | – |
| O=C(O)c1cc2ccccc2c(N=Nc2ccc(S(=O)(=O)Nc3nccs3)cc2)c1O | > 100 µM | > 100 µM | > 100 µM | > 100 µM | > 100 µM | > 100 µM | > 100 µM | > 100 µM | > 100 µM | > 100 µM | > 100 µM | > 100 µM | > 100 µM | > 100 µM | > 100 µM | > 100 µM | > 100 µM | > 100 µM | – |
| CCCN(CCCC(NC(C)=O)C(=O)NCc1ccccc1)C(=O)N(CCCl)N=O (stereo unspecified) | 62.4 µM | 42.6 µM | 26.4 µM | 30.6 µM | 19.8 µM | 57.3 µM | 39.7 µM | > 100 µM | > 100 µM | 22.9 µM | 64.6 µM | 35 µM | 42.6 µM | 43.3 µM | 43.9 µM | 37.8 µM | > 76.1 µM | 83.4 µM | – |
| CC(=O)OC(/C=C/c1ccccc1)P1(=O)N(CC(C)(C)C)[C@@H]2CCCC[C@H]2N1CC(C)(C)C (stereo partly specified) | 31.3 µM and 23.6 µM | 13.2 µM and 10.8 µM | 16.1 µM and 8.6 µM | 21.6 µM and 18.7 µM | 38.3 µM and 30.3 µM | 19.6 µM and 19.3 µM | 26.8 µM and 26.4 µM | 24.4 µM and 20.4 µM | 28.8 µM and 22.1 µM | 20.3 µM and 17.1 µM | 23.4 µM and 23.5 µM | 22 µM and 14.5 µM | 23.3 µM and 22.7 µM | 25.4 µM and 14.9 µM | 24.3 µM and 18.5 µM | 17.4 µM and 18.7 µM | 22.6 µM and 21.6 µM | 22.4 µM and 16.6 µM | 10.1 µM and 4.82 µM |
| CCCCC(C#N)(OP1(=O)OC(c2ccccc2)C(C)N1C)c1ccccc1 (stereo unspecified) | 42.5 µM | 35.4 µM | 28.9 µM | 36 µM | 38.7 µM | 32.3 µM | 30.6 µM | 30.2 µM | 33.2 µM | 41.9 µM | 32.2 µM | 33.1 µM | 35.9 µM | 32.3 µM | 34.2 µM | 34.2 µM | 31.3 µM | 37.1 µM | – |
| S=C(NC1=NCC(CN2CCN(c3ccccc3)CC2)O1)Nc1ccccc1 (stereo unspecified) | > 100 µM | > 100 µM | > 100 µM | > 100 µM | > 100 µM | > 100 µM | > 100 µM | > 100 µM | > 100 µM | > 100 µM | > 100 µM | > 100 µM | > 100 µM | > 100 µM | > 100 µM | > 100 µM | > 100 µM | > 100 µM | – |
| Nc1ncnc2c1nnn2C1C=CC(COS(N)(=O)=O)C1 (stereo unspecified) | 12.2 µM | 17.4 µM | 76.2 µM | 17.1 µM | > 100 µM | > 100 µM | > 100 µM | > 100 µM | 41.3 µM | 18.2 µM | 49.3 µM | 86 µM | 93.6 µM | > 100 µM | 21.4 µM | 15.9 µM | > 100 µM | 36.4 µM | – |
| COC(=O)[C@]1(c2cc3ccccc3n2S(=O)(=O)c2ccccc2)CC2CN(C(C)=O)C1CC2=O (stereo partly specified) | 7.79 µM | 7.29 µM | 14 µM | 4.64 µM | 16.4 µM | 5.22 µM | 6.69 µM | 7.4 µM | 6.32 µM | 9.38 µM | 13.1 µM | 3.39 µM | 5.83 µM | 30.1 µM | 7.52 µM | 14 µM | 8.11 µM | 23.4 µM | – |
| CC[C@]12C=CCN3CC[C@@]4(c5cc(Br)c(OC)cc5N(C)[C@H]4[C@@](O)(C(=O)NN)[C@@H]1O)[C@@H]32 | > 100 µM | > 100 µM | > 100 µM | > 100 µM | > 100 µM | > 100 µM | > 100 µM | > 100 µM | > 100 µM | > 100 µM | > 100 µM | 99.2 µM | > 100 µM | > 100 µM | 70.6 µM | > 100 µM | > 100 µM | > 100 µM | – |
| N#CCc1n[nH]c(Cc2ccccc2)n1 | > 100 µM | > 100 µM | > 100 µM | > 100 µM | > 100 µM | > 100 µM | > 100 µM | > 100 µM | > 100 µM | > 100 µM | > 100 µM | > 100 µM | > 100 µM | > 100 µM | > 100 µM | > 100 µM | > 100 µM | > 100 µM | – |
| C[C@H](CCC(=O)NCCS(=O)(=O)O)[C@H]1CC[C@H]2[C@@H]3CC[C@@H]4C[C@H](O)CC[C@]4(C)[C@H]3CC[C@]12C | > 100 µM | > 100 µM | > 100 µM | > 100 µM | > 100 µM | > 100 µM | > 100 µM | > 100 µM | > 100 µM | > 100 µM | > 100 µM | > 100 µM | > 100 µM | > 100 µM | > 100 µM | > 100 µM | > 100 µM | > 100 µM | – |
| Oc1ccc(-c2nc(-c3cccnc3)c(-c3ccc(Cl)cc3)[nH]2)cc1O | 46.7 µM | 30.3 µM | 26.6 µM | > 100 µM | 25.3 µM | 18.6 µM | 27 µM | 47.8 µM | 30.3 µM | 23.9 µM | 35.3 µM | 25.6 µM | 39.7 µM | 29.8 µM | 31.8 µM | 27.6 µM | 31.3 µM | 26.7 µM | – |
| O=C1CCC2(CC1CC(Sc1ccccc1)Sc1ccccc1)OCCO2 (stereo unspecified) | > 100 µM | 66.1 µM | > 100 µM | 46 µM | > 100 µM | > 100 µM | 84.7 µM | > 100 µM | > 100 µM | > 100 µM | > 100 µM | > 100 µM | > 100 µM | > 100 µM | > 100 µM | 38 µM | – | > 100 µM | – |
